Publication PMC10291552, “Computational Design, Synthesis, and Biological Evaluation of Diimidazole Analogues Endowed with Dual PCSK9/HMG-CoAR-Inhibiting Activity” (Journal of Medicinal Chemistry, 2023)
“Also recorded” adds a separate entry of the source.

Key:
[1] = system: LDLR localized on HepG2 surfaces; assay: In-cell Western assay of LDLR on the HepG2 cell surface in the presence of PCSK9; type: cell-based, human; conditions: for LDLR levels on HepG2 surface: co-incubated with PCSK9 4 μg/mL, relative to untreated control cells; for fold more active than Rim13: LDLR restoration and LDL uptake in HepG2 cells, versus Rim13 ref 25
Method: For the experiments, a total of 3 × 10^4 HepG2 cells/well were seeded in 96-well plates. The following day, the cells were washed with PBS and then starved overnight (O/N) in DMEM without FBS and antibiotics. After starvation, the HepG2 cells were treated with 4.0 μg/mL PCSK9-WT and 4.0 μg/mL PCSK9 + diimidazole analogues and vehicle (H2O) for 2 h at 37 °C under a 5% CO2 atmosphere. Subsequently, they were fixed in 4% paraformaldehyde for 20 min at room temperature (RT). Cells were washed 5 times with 100 μL of PBS/well (each wash was for 5 min at RT), and the endogenous peroxide activity was quenched by adding 3% H2O2 for 20 min at RT. Non-specific sites were blocked with 100 μL/well of 5% bovine serum albumin (BSA, Sigma) in PBS for 1.5 h at RT. LDLR primary antibody solution (1:3000 in 5% BSA in PBS, 25 μL/well) was incubated O/N at +4 °C. Subsequently, the primary antibody solution was discarded, and each sample was washed 5 times with 100 μL/well of PBS (each wash was for 5 min at RT). Goat anti-rabbit Ig-HRP secondary antibody solution (Santa Cruz) (1:6000 in 5% BSA in PBS, 50 μL/well) was added and incubated 1 h at RT. The secondary antibody solution was washed 5 times with 100 μL/well of PBS (each wash for 5 min at RT). Freshly prepared TMB substrate (Pierce, 100 μL/well) was added, and the plate was incubated at RT until the desired color was developed. The reaction was stopped with 2 M H2SO4, and then the absorbance at 450 nm was measured using a microplate reader (Synergy H1, Winooski, VT, USA). After the reading, the cells were stained by adding 1× Janus Green stain, incubating for 5 min at RT. The dye was removed, and the sample was washed 5 times with water. Afterward, 100 μL of 0.5 M HCl for well was added, and the solution was incubated for 10 min. After 10 s of shaking, the OD at 595 nm was measured using the microplate reader (Synergy H1, Winooski, VT, USA).

HepG2 cells [2] = assay: HepG2 cell viability (MTT assay); type: cell-based, human; conditions: 48 h treatment, 0.1 nM to 10 μM, versus control cells
Method: Figure 3 HepG2 cell viability after the Dim3 (A) and Dim16 (B) treatments. Bar graphs indicating the results of the cell viability assay of HepG2 cells after Dim3 and Dim16 (0.1–10,000 nM) treatment for 48 h. The data points represent the mean ± SD of the three experiments in triplicate. ns: not significant.
The HepG2 cell line was bought from ATCC (HB-8065, ATCC from LGC Standards, Milan, Italy) and cultured in DMEM high glucose with stable L-glutamine supplemented with 10% FBS, 100 U/mL penicillin, and 100 μg/mL streptomycin (complete growth medium) with incubation at 37 °C under a 5% CO2 atmosphere.

HepG2 cells [3] = assay: Fluorescent LDL uptake by HepG2 cells in the presence of PCSK9; type: cell-based, human; conditions: co-incubated with PCSK9 4 μg/mL, relative to untreated control cells
Method: HepG2 cells (3 × 10^4/well) were seeded in 96-well plates and kept in complete growth medium for 2 days before treatment. On the third day, the cells were washed with PBS and then starved overnight (O/N) in DMEM without FBS and antibiotics. After starvation, they were treated with 4.0 μg/mL PCSK9, 4.0 μg/mL PCSK9 + diimidazole analogues, and vehicle (H2O) for 2 h with at 37 °C under a 5% CO2 atmosphere. At the end of the treatment, the culture medium was replaced with 50 μL/well LDL-DyLight 550 working solution (Cayman Chemical Company, Ann Arbor, MI, USA) prepared in DMEM without FBS and antibiotics. The cells were additionally incubated for 2 h at 37 °C, and then the culture medium was aspirated and replaced with PBS (100 μL/well). The degree of LDL uptake was measured using a Synergy H1 fluorescent plate reader (Winooski, VT, USA) (excitation and emission wavelengths of 540 and 570 nm, respectively). Fluorescent LDL uptake was finally assessed following optimized protocol.[14]

[4] = target: T1, HMG-CoAR (catalytic domain) (Homo sapiens, UniProt P04035); assay: HMG-CoAR activity assay (Sigma kit, NADPH oxidation at 340 nm); type: biochemical; conditions: 10–500 μM tested, 37 °C
T1 construct: and finally, HMG-CoAR (catalytic domain) (2 μL); purchased Sigma Aldrich
T1 sequence (P04035 426-888 limits assumed): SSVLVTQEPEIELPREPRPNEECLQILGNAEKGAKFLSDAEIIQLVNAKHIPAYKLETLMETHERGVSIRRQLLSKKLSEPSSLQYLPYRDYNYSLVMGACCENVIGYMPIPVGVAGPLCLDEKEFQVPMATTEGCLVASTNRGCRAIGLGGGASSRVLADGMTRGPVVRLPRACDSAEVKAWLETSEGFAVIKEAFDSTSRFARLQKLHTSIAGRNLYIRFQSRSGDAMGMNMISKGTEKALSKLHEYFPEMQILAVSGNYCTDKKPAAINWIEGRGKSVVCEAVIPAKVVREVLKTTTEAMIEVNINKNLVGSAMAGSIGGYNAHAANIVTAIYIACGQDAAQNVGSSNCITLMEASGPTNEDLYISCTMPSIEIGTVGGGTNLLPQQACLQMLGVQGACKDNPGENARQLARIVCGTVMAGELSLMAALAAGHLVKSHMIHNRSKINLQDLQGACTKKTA
Method: The experiments were carried out following the manufacturer’s instructions and optimized protocol.[43] The assay buffer, NADPH, substrate solution, and HMG-CoAR were provided in the HMG-CoAR Assay Kit (Sigma Aldrich SRL, Milan, Italy). The experiments were carried out following the manufacturer’s instructions at 37 °C. In particular, each reaction (200 μL) was prepared adding the reagents in the following order: 1× assay buffer, a 10–500 μM dose of sonicated Dim analogues or vehicle (C), NADPH (4 μL), the substrate solution (12 μL), and finally, HMG-CoAR (catalytic domain) (2 μL). Subsequently, the samples were mixed, and the absorbance at 340 nm was read by a microplate reader (Synergy H1, Winooski, VT, USA) at times of 0 and 10 min. The HMGCoAR-dependent oxidation of NADPH and the inhibition properties of the peptides were measured by absorbance reduction, which is directly proportional to enzyme activity.

| SMILES | LDLR levels on HepG2 surface ([1]; 1 nM) | LDLR levels on HepG2 surface ([1]; 10 nM) | fold more active than Rim13 [1] | HepG2 cell vitality (HepG2 cells [2]) | LDL uptake (HepG2 cells [3]; 1 nM) | LDL uptake (HepG2 cells [3]; 10 nM) | HMG-CoAR activity IC50 [4] | fold more effective than Dim3 in restoring LDLR protein level on cell surface ([1]; cellular level, Figure 4) | IC50 [4] |
| --- | --- | --- | --- | --- | --- | --- | --- | --- | --- |
| C#Cc1ncc(-c2ncc(-c3ccc4ccccc4c3)n2CCCC(C)(C)C)n1CCCCCNC [Dim3, 5-(1-(4,4-Dimethylpentyl)-2′-ethynyl-5-(naphthalen-2-yl)-1H,3′H-[2,4′-biimidazol]-3′-yl)-N-methylpentan-1-amine] | 77.87 ± 3.04% | 101.1 ± 15.06% | 100 | safe for HepG2 cells and safe | 94.12 ± 10.95% | 103.47 ± 7.34% | no in vitro inhibitory activity; also recorded: not active |  |  |
| CNCCCCCn1c(-c2ncc(-c3ccc4ccccc4c3)n2CCCC(C)(C)C)cnc1I [Dim16, 5-(1-(4,4-Dimethylpentyl)-2′-iodo-5-(naphthalen-2-yl)-1H,3′H-[2,4′-biimidazol]-3′-yl)-N-methylpentan-1-amine] | 91.1 ± 2.22% | 87.17 ± 7.42% | 100 | safe for HepG2 cells and safe | 81.87 ± 7.45% | 136.47 ± 8.81% |  | 10 | 147 ± 75.1 µM |
